Laboratory results published in US20250271426A1, “REDUCTION OF BITTER TASTE OF ACTIVE PHARMACEUTICAL INGREDIENTS AND RELATED ASSAYS AND SCREENING METHODS” (Firmenich Incorporated, priority 2022, published 2025).

Legend:
Assay in all cases: FLIPR calcium assay, cells with promiscuous G protein transfected with bitter receptor cDNA
Assay type in all cases: cell-based
Conditions in all cases: responsive if cellular response of >10% over baseline, Fluo4-AM
[1] = biological target: T1, T2R receptor SEQ ID NO: 5 (S5) (Homo sapiens, UniProt P59534)
T1 construct: expressed in transfected cells; host or cells: cells expressing a promiscuous G protein (e.g., G16g44)
T1 sequence (P59534 18-338): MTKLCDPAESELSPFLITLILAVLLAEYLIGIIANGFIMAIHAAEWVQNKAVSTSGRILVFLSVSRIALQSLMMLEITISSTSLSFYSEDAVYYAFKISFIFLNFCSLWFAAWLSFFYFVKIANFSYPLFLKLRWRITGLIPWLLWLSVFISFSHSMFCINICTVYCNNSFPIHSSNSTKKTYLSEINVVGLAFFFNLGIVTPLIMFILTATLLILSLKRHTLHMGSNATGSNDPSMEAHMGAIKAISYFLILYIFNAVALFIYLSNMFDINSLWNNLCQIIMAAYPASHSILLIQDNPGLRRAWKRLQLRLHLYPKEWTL
Procedure: (§1) Cells expressing a promiscuous G protein (e.g., G16g44) were transfected with vectors encoding 22 functional bitter receptor cDNAs, with one receptor per transfection. The cells were transfected directly in 384-well format high-density plates and incubated for 28 hours. Later, cells were loaded with the Ca-specific dye Fluo4-AM. After an incubation of 60 minutes, excess dye is washed off, and cells are stimulated with respective bitter agonists while simultaneously recording changes in intracellular fluorescence using a FLIPR instrument.
(§2) The above protocol was carried out using 94 different active pharmaceutical ingredients (APIs) that span a wide range of different APIs having a diversity of chemical structures. A particular T2R receptor was identified as being responsive to a particular API if it triggered a cellular response of >10% over baseline.

[2] = biological target: T2, T2R receptor SEQ ID NO: 1 (S1) (Homo sapiens, UniProt Q9NYW7)
T2 construct: expressed in transfected cells; host or cells: cells expressing a promiscuous G protein (e.g., G16g44)
T2 sequence (Q9NYW7 1-299): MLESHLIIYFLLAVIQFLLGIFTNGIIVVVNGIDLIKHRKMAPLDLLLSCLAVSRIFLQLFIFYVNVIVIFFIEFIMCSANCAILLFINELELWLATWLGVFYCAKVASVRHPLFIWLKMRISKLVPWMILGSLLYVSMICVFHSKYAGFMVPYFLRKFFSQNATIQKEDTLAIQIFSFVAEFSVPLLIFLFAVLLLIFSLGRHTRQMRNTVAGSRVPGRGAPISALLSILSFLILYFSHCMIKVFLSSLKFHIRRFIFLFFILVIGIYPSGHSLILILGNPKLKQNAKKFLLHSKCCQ
Procedure: as §1, §2

[3] = biological target: T3, T2R receptor SEQ ID NO: 3 (S3) (Homo sapiens, UniProt Q9NYW0, T156M)
T3 construct: expressed in transfected cells; host or cells: cells expressing a promiscuous G protein (e.g., G16g44)
T3 sequence (Q9NYW0 1-307 T156M): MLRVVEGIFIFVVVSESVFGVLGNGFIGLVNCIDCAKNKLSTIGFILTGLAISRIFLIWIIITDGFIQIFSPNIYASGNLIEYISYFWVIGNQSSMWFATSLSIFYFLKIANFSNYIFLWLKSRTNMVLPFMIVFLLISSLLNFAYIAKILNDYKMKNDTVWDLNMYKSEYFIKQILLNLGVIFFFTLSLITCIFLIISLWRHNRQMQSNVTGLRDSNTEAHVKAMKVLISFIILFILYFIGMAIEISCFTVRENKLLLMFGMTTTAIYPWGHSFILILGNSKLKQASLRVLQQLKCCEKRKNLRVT
Procedure: as §1, §2

[4] = biological target: T4, T2R receptor SEQ ID NO: 6 (S6) (Homo sapiens, UniProt P59540)
T4 construct: expressed in transfected cells; host or cells: cells expressing a promiscuous G protein (e.g., G16g44)
T4 sequence (P59540 1-309): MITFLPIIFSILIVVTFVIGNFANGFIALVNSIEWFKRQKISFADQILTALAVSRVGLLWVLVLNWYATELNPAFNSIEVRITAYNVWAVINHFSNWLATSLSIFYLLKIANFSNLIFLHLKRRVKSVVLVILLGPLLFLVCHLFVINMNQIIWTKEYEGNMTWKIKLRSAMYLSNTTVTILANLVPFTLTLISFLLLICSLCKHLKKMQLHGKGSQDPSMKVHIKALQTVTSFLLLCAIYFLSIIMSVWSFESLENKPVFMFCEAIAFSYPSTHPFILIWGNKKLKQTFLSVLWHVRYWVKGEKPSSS
Procedure: as §1, §2

[5] = biological target: T5, T2R receptor SEQ ID NO: 4 (S4) (Homo sapiens, UniProt Q9NYV8)
T5 construct: expressed in transfected cells; host or cells: cells expressing a promiscuous G protein (e.g., G16g44)
T5 sequence (Q9NYV8 1-317): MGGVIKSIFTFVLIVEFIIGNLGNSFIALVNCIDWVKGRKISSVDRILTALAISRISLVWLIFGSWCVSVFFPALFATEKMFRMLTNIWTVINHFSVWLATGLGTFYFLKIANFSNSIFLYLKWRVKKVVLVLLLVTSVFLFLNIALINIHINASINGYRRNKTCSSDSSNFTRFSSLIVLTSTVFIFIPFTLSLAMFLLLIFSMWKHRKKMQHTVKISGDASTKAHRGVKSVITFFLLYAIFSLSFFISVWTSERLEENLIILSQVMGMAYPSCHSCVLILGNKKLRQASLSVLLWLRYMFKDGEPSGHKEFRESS
Procedure: as §1, §2

| SMILES | S5 positive response of T2R receptor to API [1] | S1 positive response of T2R receptor to API [2] | S3 positive response of T2R receptor to API [3] | S6 positive response of T2R receptor to API [4] | S4 positive response of T2R receptor to API [5] |
| --- | --- | --- | --- | --- | --- |
| CC[C@H]1OC(=O)[C@H](C)[C@@H](O[C@H]2C[C@@](C)(OC)[C@@H](O)[C@H](C)O2)[C@H](C)[C@@H](O[C@@H]2O[C@H](C)C[C@H](N(C)C)[C@H]2O)[C@](C)(OC)C[C@@H](C)C(=O)[C@H](C)[C@@H](O)[C@]1(C)O [Clarithromycin] | + (a “+” to indicate whether a particular T2R receptor showed a positive response to a particular API) | + (a “+” to indicate whether a particular T2R receptor showed a positive response to a particular API) | + (a “+” to indicate whether a particular T2R receptor showed a positive response to a particular API) |  |  |
| CC(=O)Nc1ccc(O)cc1 [Acetaminophen] | + (a “+” to indicate whether a particular T2R receptor showed a positive response to a particular API) |  |  |  |  |
| COC(=O)[C@H](c1ccccc1Cl)N1CCc2sccc2C1 [Clopidogrel] |  | + (a “+” to indicate whether a particular T2R receptor showed a positive response to a particular API) | + (a “+” to indicate whether a particular T2R receptor showed a positive response to a particular API) |  |  |
| CCN(CC)CCNC(=O)c1ccc(N)cc1 [Procaineamide] | + (a “+” to indicate whether a particular T2R receptor showed a positive response to a particular API) |  | + (a “+” to indicate whether a particular T2R receptor showed a positive response to a particular API) | + (a “+” to indicate whether a particular T2R receptor showed a positive response to a particular API) |  |
| Cc1cc(N)c2ccccc2[n+]1CCCCCCCCCC[n+]1c(C)cc(N)c2ccccc21 [Dequalinium] | + (a “+” to indicate whether a particular T2R receptor showed a positive response to a particular API) |  |  | + (a “+” to indicate whether a particular T2R receptor showed a positive response to a particular API) |  |
| COc1cc2c(c(OC)c1OC)-c1ccc(OC)c(=O)cc1[C@@H](NC(C)=O)CC2 [Colchicine] | + (a “+” to indicate whether a particular T2R receptor showed a positive response to a particular API) |  |  | + (a “+” to indicate whether a particular T2R receptor showed a positive response to a particular API) |  |
| CC(CCc1ccccc1)NCC(O)c1ccc(O)c(C(N)=O)c1 (stereo not shown) [Labetalol] | + (a “+” to indicate whether a particular T2R receptor showed a positive response to a particular API) |  | + (a “+” to indicate whether a particular T2R receptor showed a positive response to a particular API) | + (a “+” to indicate whether a particular T2R receptor showed a positive response to a particular API) |  |
| CC[N+](C)(C)c1cccc(O)c1 [Edrophonium] | + (a “+” to indicate whether a particular T2R receptor showed a positive response to a particular API) | + (a “+” to indicate whether a particular T2R receptor showed a positive response to a particular API) |  | + (a “+” to indicate whether a particular T2R receptor showed a positive response to a particular API) |  |
| CC(C)(C(=O)O)c1ccc(C(O)CCCN2CCC(C(O)(c3ccccc3)c3ccccc3)CC2)cc1 (stereo not shown) [Fexofenadine] | + (a “+” to indicate whether a particular T2R receptor showed a positive response to a particular API) | + (a “+” to indicate whether a particular T2R receptor showed a positive response to a particular API) |  | + (a “+” to indicate whether a particular T2R receptor showed a positive response to a particular API) |  |
| CC12CCC(CC1)C(C)(C)O2 [Eucalyptol] |  | + (a “+” to indicate whether a particular T2R receptor showed a positive response to a particular API) |  |  | + (a “+” to indicate whether a particular T2R receptor showed a positive response to a particular API) |
| CCN(CC)CC#CCOC(=O)C(O)(c1ccccc1)C1CCCCC1 (stereo not shown) [Oxybutynin Chloride] | + (a “+” to indicate whether a particular T2R receptor showed a positive response to a particular API) |  | + (a “+” to indicate whether a particular T2R receptor showed a positive response to a particular API) | + (a “+” to indicate whether a particular T2R receptor showed a positive response to a particular API) | + (a “+” to indicate whether a particular T2R receptor showed a positive response to a particular API) |
| COC(=O)[C@@H]1[C@H]2C[C@H]3c4[nH]c5ccccc5c4CCN3C[C@@H]2CC[C@@H]1O [Yohimbine] |  | + (a “+” to indicate whether a particular T2R receptor showed a positive response to a particular API) | + (a “+” to indicate whether a particular T2R receptor showed a positive response to a particular API) | + (a “+” to indicate whether a particular T2R receptor showed a positive response to a particular API) |  |
| C=CC[C@@H]1/C=C(\C)C[C@H](C)C[C@H](OC)[C@H]2O[C@@](O)(C(=O)C(=O)N3CCCC[C@H]3C(=O)O[C@H](/C(C)=C/[C@@H]3CC[C@@H](O)[C@H](OC)C3)[C@H](C)[C@@H](O)CC1=O)[C@H](C)C[C@@H]2OC [Fujimycin] |  | + (a “+” to indicate whether a particular T2R receptor showed a positive response to a particular API) |  |  |  |
| CC(=O)Oc1ccc(C(c2ccc(OC(C)=O)cc2)c2ccccn2)cc1 [Bisacodyl] |  | + (a “+” to indicate whether a particular T2R receptor showed a positive response to a particular API) |  | + (a “+” to indicate whether a particular T2R receptor showed a positive response to a particular API) | + (a “+” to indicate whether a particular T2R receptor showed a positive response to a particular API) |
| COCCCC/C(=N\OCCN)c1ccc(C(F)(F)F)cc1 [Fluvoxamine] |  | + (a “+” to indicate whether a particular T2R receptor showed a positive response to a particular API) |  |  |  |
| C=C[C@H]1C[N@@]2CC[C@H]1C[C@H]2[C@H](O)c1ccnc2ccc(OC)cc12 [Quinine] | + (a “+” to indicate whether a particular T2R receptor showed a positive response to a particular API) |  | + (a “+” to indicate whether a particular T2R receptor showed a positive response to a particular API) | + (a “+” to indicate whether a particular T2R receptor showed a positive response to a particular API) | + (a “+” to indicate whether a particular T2R receptor showed a positive response to a particular API) |
